pEC50: −log10 of the molar value.
Target: GPR40 (Homo sapiens, UniProt O14842)
Test: Cell-based aequorin assay (CHO cells stably transfected with GPR40 and aequorin)
Design: expressed in transfected cells
Details: activation of human GPR40, CHO cells, 0.01% HSA
Procedure: Briefly, the Aequorin assays were performed on doubly stable CHO cells expressing GPR40 and Aequorin DNA. […] The luminescence was recorded over a period of 20 seconds with a Microlumat luminometer (Berthold).
Cell-based aequorin assays were employed to characterize the modulatory activity of compounds on the GPR40 signaling pathway. In an exemplary assay, CHO cells were stably transfected with both GPR40 and Aequorin (Euroscreen). Cells were detached from the tissue culture dish with 2 mL of trypsin (0.25% (w/v)). Trypsinization was halted with 28 mL of Hanks Buffered Salt Solution containing 20 mM Hepes (H/HBSS) and 0.01% fatty acid-free human serum albumin (HSA). Coelantrazine is added to 1 ug/mL, and the cells were incubated for 2 hours at room temperature. Compounds were dissolved in DMSO for preparation of 10 mM stock solutions. Compounds were diluted in H/HBSS containing 0.01% HSA. Serial dilutions of the test compounds were prepared to determine dose response.
Aequorin luminescence measurements were made using an EG&G Berthold 96-well luminometer, and the response was measured over a 20 second interval after cells and compounds were mixed. The maximum relative light units was plotted to determine dose response. The EC50 (effective concentration to reach 50% maximal response) was determined from the dose response plot.

GPR40, sequence (O14842 whole entry): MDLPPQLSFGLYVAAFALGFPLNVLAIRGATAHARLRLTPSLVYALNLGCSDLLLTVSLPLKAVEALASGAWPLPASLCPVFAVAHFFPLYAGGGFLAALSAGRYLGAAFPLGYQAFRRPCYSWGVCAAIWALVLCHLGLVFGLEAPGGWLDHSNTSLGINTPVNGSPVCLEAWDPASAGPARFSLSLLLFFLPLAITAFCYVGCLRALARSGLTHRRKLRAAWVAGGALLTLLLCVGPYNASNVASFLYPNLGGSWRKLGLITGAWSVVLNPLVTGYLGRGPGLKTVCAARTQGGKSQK

Structure (SMILES) | pEC50
COc1ccc(F)c(-c2ccc(COc3ccc4c(c3)[C@@H](CC(=O)O)C4)cc2C(C)(C)C)c1 (single isomer, unassigned) [Example 4, ((7R)-4-(((2-(1,1-Dimethylethyl)-2′-fluoro-5′-(methyloxy)-1,1′-biphenyl-4-yl)methyl)oxy)bicyclo[4.2.0]octa-1,3,5-trien-7-yl)acetic acid or ((7R)-4-(((2-(1,1-dimethylethyl)-2′-fluoro-5′-(methyloxy)-1,1′-biphenyl-4-yl)methyl)oxy)bicyclo[4.2.0]octa-1,3,5-trien-7-yl)acetic acid] | < 5.00
COc1ccc(F)c(-c2ccc(COc3ccc4c(c3)CC[C@H]4CC(=O)O)cc2C(C)(C)C)c1 (single isomer, unassigned) [Example 32, ((1S)-5-((2′-Fluoro-5′-methoxy-2-(2-methyl-2-propanyl)-4-biphenylyl)methoxy)-2,3-dihydro-1H-inden-1-yl)acetic acid or ((1R)-5-((2′-fluoro-5′-methoxy-2-(2-methyl-2-propanyl)-4-biphenylyl)methoxy)-2,3-dihydro-1H-inden-1-yl)acetic acid] | 5.00 to 6.00
COc1ccc(F)c(-c2ccc(COc3ccc4c(c3)[C@H](CC(=O)O)C(C)(C)C4)cc2C(C)(C)C)c1 (single isomer, unassigned) [Example 10, ((1R)-6-(((2-(1,1-Dimethylethyl)-2′-fluoro-5′-(methyloxy)-1,1′-biphenyl-4-yl)methyl)oxy)-2,2-dimethyl-2,3-dihydro-1H-inden-1-yl)acetic acid or ((1S)-6-(((2-(1,1-dimethylethyl)-2′-fluoro-5′-(methyloxy)-1,1′-biphenyl-4-yl)methyl)oxy)-2,2-dimethyl-2,3-dihydro-1H-inden-1-yl)acetic acid] | 5.00 to 6.00
COc1cc(-c2ccc(COc3ccc4c(c3)[C@](C)(CC(=O)O)CCC4)cc2[C@H]2CCCC2(C)C)c(F)cn1 (single isomer, unassigned) [Example 49] | 6.00 to 7.00
COc1cc(-c2ccc(COc3ccc4c(c3F)C(C)(CC(=O)O)CC4)cc2C(OC)C(C)(C)C)c(F)cn1 [Example 41, {(S)-7-Fluoro-6-[4-(5-fluoro-2-methoxy-pyridin-4-yl)-3-((S)-1-methoxy-2,2-dimethyl-propyl)-benzyloxy]-1-methyl-indan-1-yl}-acetic acid or stereoisomer thereof] | 5.00 to 6.00
COc1cccc(-c2ccc(COc3ccc4c(c3)[C@@H](CC(=O)O)CC4)cc2C(C)(C)C)c1 (single isomer, unassigned) [Example 25, ((1R)-6-(((2-(1,1-Dimethylethyl)-3′-(methyloxy)-1,1′-biphenyl-4-yl)methyl)oxy)-2,3-dihydro-1H-inden-1-yl)acetic acid or ((1S)-6-(((2-(1,1-dimethylethyl)-3′-(methyloxy)-1,1′-biphenyl-4-yl)methyl)oxy)-2,3-dihydro-1H-inden-1-yl)acetic acid] | 5.00 to 6.00
COc1ccc(F)c(-c2ccc(COc3ccc4c(c3)C[C@@H]4CC(=O)O)cc2C(C)(C)C)c1 (single isomer, unassigned) [Example 29, ((7S)-3-((2′-Fluoro-5′-methoxy-2-(2-methyl-2-propanyl)-4-biphenylyl)methoxy)bicycle[4.2.0]octa-1,3,5-trien-7-yl)acetic acid or ((7R)-3-((2′-fluoro-5′-methoxy-2-(2-methyl-2-propanyl)-4-biphenylyl)methoxy)bicycle[4.2.0]octa-1,3,5-trien-7-yl)acetic acid] | 5.00 to 6.00
COc1cc(-c2ccc(COc3ccc4c(c3)[C@H](CC(=O)O)CCC4)cc2[C@H]2CCCC2(C)C)c(F)cn1 (single isomer, unassigned) [Example 47] | 5.00 to 6.00
COc1ccc(F)c(-c2ccc(COc3ccc4c(c3)[C@H](CC(=O)O)C4)cc2C(C)(C)C)c1 (single isomer, unassigned) [Example 3, (R)-2-(5-(3-t-Butyl-4-(2-fluoro-5-methoxyphenyl)benzyloxy)-1,2-dihydrocyclobutabenzen-1-yl)acetic acid or (S)-2-(5-(3-t-butyl-4-(2-fluoro-5-methoxyphenyl)benzyloxy)-1,2-dihydrocyclobutabenzen-1-yl)acetic acid] | 5.00 to 6.00
COc1ccc(F)c(-c2ccc(COc3ccc4c(c3)[C@@H](CC(=O)O)C(C)(C)C4)cc2C(C)(C)C)c1 (single isomer, unassigned) [Example 8, ((1S)-6-(((2-(1,1-Dimethylethyl)-2′-fluoro-5′-(methyloxy)-1,1′-biphenyl-4-yl)methyl)oxy)-2,2-dimethyl-2,3-dihydro-1H-inden-1-yl)acetic acid or ((1R)-6-(((2-(1,1-dimethylethyl)-2′-fluoro-5′-(methyloxy)-1,1′-biphenyl-4-yl)methyl)oxy)-2,2-dimethyl-2,3-dihydro-1H-inden-1-yl)acetic acid] | 5.00 to 6.00
COc1cccc(-c2ccc(COc3ccc4c(c3)[C@@H]([C@@H](C)C(=O)O)CC4)cc2C(C)(C)C)c1 (single isomer, unassigned) [Example 26, 2-((1R)-6-(((2-(1,1-dimethylethyl)-3′-(methyloxy)-1,1′-biphenyl-4-yl)methyl)-oxy)-2,3-dihydro-1H-inden-1-yl)propanoic acid or stereoisomer thereof] | 5.00 to 6.00

Other lines, results leading:

pEC50 | Structure (SMILES)
5.00 to 6.00 | COc1ccc(F)c(-c2ccc(COc3ccc4c(c3)CC[C@@H]4CC(=O)O)cc2C(C)(C)C)c1 (single isomer, unassigned) [Example 31, ((1S)-5-((2′-Fluoro-5′-methoxy-2-(2-methyl-2-propanyl)-4-biphenylyl)methoxy)-2,3-dihydro-1H-inden-1-yl)acetic acid or ((1R)-5-((2′-fluoro-5′-methoxy-2-(2-methyl-2-propanyl)-4-biphenylyl)methoxy)-2,3-dihydro-1H-inden-1-yl)acetic acid]
6.00 to 7.00 | COc1ccc(F)c(-c2ccc(COc3ccc4c(c3)[C@H]([C@@H](C)C(=O)O)CC4)cc2C(C)(C)C)c1 [Example 13]
5.00 to 6.00 | COc1ccc(F)c(-c2ccc(COc3ccc4c(c3)CC[C@@H]4CC(=O)O)cc2C(C)(C)C)c1 (single isomer, unassigned) [Example 5, (R)-Methyl 2-(5-(3-t-butyl-4-(2-fluoro-5-methoxyphenyl)benzyloxy)-2,3-dihydro-1H-inden-1-yl)acetic acid or (S)-methyl 2-(5-(3-t-butyl-4-(2-fluoro-5-methoxyphenyl)benzyloxy)-2,3-dihydro-1H-inden-1-yl)acetic acid]
6.00 to 7.00 | COc1ccc(F)c(-c2ccc(COc3ccc4c(c3)[C@@H](CC(=O)O)C(C)(C)C4)cc2C2=CCCC2(C)C)c1 (single isomer, unassigned) [Example 9, ((1S)-6-(((2-(5,5-Dimethyl-1-cyclopenten-1-yl)-2′-fluoro-5′-(methyloxy)-1,1′-biphenyl-4-yl)methyl)oxy)-2,2-dimethyl-2,3-dihydro-1H-inden-1-yl)acetic acid or ((1R)-6-(((2-(5,5-dimethyl-1-cyclopenten-1-yl)-2′-fluoro-5′-(methyloxy)-1,1′-biphenyl-4-yl)methyl)oxy)-2,2-dimethyl-2,3-dihydro-1H-inden-1-yl)acetic acid]
5.00 to 6.00 | CCC(C)(C)[C@H](OC)c1cc(COc2ccc3c(c2)[C@@H]([C@@H](C)C(=O)O)CC3)ccc1-c1cc(OC)ccc1F (single isomer, unassigned) [Example 27, 2-((1R)-6-(((2-((1R)-2,2-Dimethyl-1-(methyloxy)butyl)-2′-fluoro-5′-(methyloxy)-1,1′-biphenyl-4-yl)methyl)oxy)-2,3-dihydro-1H-inden-1-yl)propanoic acid (27) or stereoisomer thereof]
5.00 to 6.00 | C=CC(C)(C)[C@H](O)c1cc(COc2ccc3c(c2)[C@@H]([C@@H](C)C(=O)O)CC3)ccc1-c1cc(OC)ccc1F (single isomer, unassigned) [Example 28, 2-((1R)-6-(((2′-Fluoro-2-((1S)-1-hydroxy-2,2-dimethyl-3-butenyl)-5′-(methyloxy)-1,1′-biphenyl-4-yl)methyl)oxy)-2,3-dihydro-1H-inden-1-yl)propanoic acid or stereoisomer thereof]
6.00 to 7.00 | COc1ccc(F)c(-c2ccc(COc3ccc4c(c3)[C@@H](C(C)(C)C(=O)O)CC4)cc2C(C)(C)C)c1 (single isomer, unassigned) [Example 12, 2-((1S)-6-(((2-(1,1-Dimethylethyl)-2′-fluoro-5′-(methyloxy)-1,1′-biphenyl-4-yl)methyl)oxy)-2,3-dihydro-1H-inden-1-yl)-2-methylpropanoic acid or 2-((1R)-6-(((2-(1,1-Dimethylethyl)-2′-fluoro-5′-(methyloxy)-1,1′-biphenyl-4-yl)methyl)oxy)-2,3-dihydro-1H-inden-1-yl)-2-methylpropanoic acid]
6.00 to 7.00 | COc1ccc(F)c(-c2ccc(COc3ccc4c(c3)[C@@H](C(C)(C)C(=O)O)CC4)cc2C2=CCCC2(C)C)c1 (single isomer, unassigned) [Example 11, 2-((1S)-6-(((2-(5,5-Dimethyl-1-cyclopenten-1-yl)-2′-fluoro-5′-(methyloxy)-1,1′-biphenyl-4-yl)methyl)oxy)-2,3-dihydro-1H-inden-1-yl)-2-methylpropanoic acid or 2-((1R)-6-(((2-(5,5-dimethyl-1-cyclopenten-1-yl)-2′-fluoro-5′-(methyloxy)-1,1′-biphenyl-4-yl)methyl)oxy)-2,3-dihydro-1H-inden-1-yl)-2-methylpropanoic acid]
